From ChEMBL document CHEMBL4257530, “Synthesis and evaluation of 6-heteroarylamino-2,4,5-trimethylpyridin-3-ols as inhibitors of TNF-α-induced cell adhesion and inflammatory bowel disease” (Medchemcomm, 2018)
The source made the active and inactive calls. The rule behind the calls is not given here.

Key:
HT-29 [1] = test: Potency index, ratio of compound effect to 5-ASA effect for inhibition of TNFalpha-mediated adhesion of BCECF fluorescence-labeled human U937 cells to human HT-29 cells at 1 uM; assay type: functional
HT-29 [2] = test: Inhibition of TNFalpha-mediated adhesion of BCECF fluorescence-labeled human U937 cells to human HT-29 cells at 1 uM pretreated for 1 hr followed by BCECF fluorescence-labeled human U937 cell/TNFalpha addition and measured after 3 hrs by fluorescence assay relative to control; assay type: functional
HT-29 [3] = test: Potency index, ratio of 5-ASA IC50 to test compound IC50 for TNFalpha-mediated adhesion of BCECF fluorescence-labeled human U937 cells to human HT-29 cells; assay type: functional
HT-29 [4] = test: Inhibition of TNFalpha-mediated adhesion of BCECF fluorescence-labeled human U937 cells to human HT-29 cells at 20 mM pretreated for 1 hr followed by BCECF fluorescence-labeled human U937 cell/TNFalpha addition and measured after 3 hrs by fluorescence assay relative to control; assay type: functional
Rattus norvegicus [5] = test: Antiinflammatory activity in TNBS-induced Sprague-Dawley rat colitis model assessed as decrease in IL-6 expression at 300 mg/kg, po administered once daily via gavage for 5 days starting 1 day post TNBS induction measured on day 7 by Western blot analysis; assay type: functional, organism-based
Rattus norvegicus [6] = test: Antiinflammatory activity in TNBS-induced Sprague-Dawley rat colitis model assessed as decrease in IL1beta expression at 300 mg/kg, po administered once daily via gavage for 5 days starting 1 day post TNBS induction measured on day 7 by Western blot analysis; assay type: functional, organism-based
Rattus norvegicus [7] = test: Antiinflammatory activity in TNBS-induced Sprague-Dawley rat colitis model assessed as decrease in MCP1 expression at 300 mg/kg, po administered once daily via gavage for 5 days starting 1 day post TNBS induction measured on day 7 by ELISA; assay type: functional, organism-based
Rattus norvegicus [8] = test: Antiinflammatory activity in TNBS-induced Sprague-Dawley rat colitis model assessed as decrease in ICAM1 expression at 300 mg/kg, po administered once daily via gavage for 5 days starting 1 day post TNBS induction measured on day 7 by Western blot analysis; assay type: functional, organism-based
Rattus norvegicus [9] = test: Antiinflammatory activity in TNBS-induced Sprague-Dawley rat colitis model assessed as increase in IL-10 expression at 300 mg/kg, po administered once daily via gavage for 5 days starting 1 day post TNBS induction measured on day 7 by Western blot analysis; assay type: functional, organism-based
Rattus norvegicus [10] = test: Antiinflammatory activity in TNBS-induced Sprague-Dawley rat colitis model assessed as decrease in TNFalpha expression at 300 mg/kg, po administered once daily via gavage for 5 days starting 1 day post TNBS induction measured on day 7 by Western blot analysis; assay type: functional, organism-based
Rattus norvegicus [11] = test: Antiinflammatory activity in TNBS-induced Sprague-Dawley rat colitis model assessed as recovery in colon weight at 300 mg/kg, po administered once daily via gavage for 5 days starting 1 day post TNBS induction measured on day 7; assay type: functional, organism-based
Rattus norvegicus [12] = test: Antiinflammatory activity in TNBS-induced Sprague-Dawley rat colitis model assessed as myeloperoxidase level at 300 mg/kg, po administered once daily via gavage for 5 days starting 1 day post TNBS induction measured on day 7 by ELISA (reference value: 456.67 +/- 41.78 ng/ml); assay type: functional
Rattus norvegicus [13] = test: Antiinflammatory activity in TNBS-induced Sprague-Dawley rat colitis model assessed as decrease in ICAM1 expression at 1 mg/kg, po administered once daily via gavage for 5 days starting 1 day post TNBS induction measured on day 7 by Western blot analysis; assay type: functional, organism-based
Rattus norvegicus [14] = test: Antiinflammatory activity in TNBS-induced Sprague-Dawley rat colitis model assessed as decrease in IL1beta expression at 1 mg/kg, po administered once daily via gavage for 5 days starting 1 day post TNBS induction measured on day 7 by Western blot analysis; assay type: functional, organism-based
Rattus norvegicus [15] = test: Antiinflammatory activity in TNBS-induced Sprague-Dawley rat colitis model assessed as increase in IL-10 expression at 1 mg/kg, po administered once daily via gavage for 5 days starting 1 day post TNBS induction measured on day 7 by Western blot analysis; assay type: functional, organism-based
Rattus norvegicus [16] = test: Antiinflammatory activity in TNBS-induced Sprague-Dawley rat colitis model assessed as decrease in MCP1 expression at 1 mg/kg, po administered once daily via gavage for 5 days starting 1 day post TNBS induction measured on day 7 by ELISA; assay type: functional, organism-based
Rattus norvegicus [17] = test: Antiinflammatory activity in TNBS-induced Sprague-Dawley rat colitis model assessed as myeloperoxidase level at 1 mg/kg, po administered once daily via gavage for 5 days starting 1 day post TNBS induction measured on day 7 by ELISA (reference value: 456.67 +/- 41.78 ng/ml); assay type: functional
Rattus norvegicus [18] = test: Antiinflammatory activity in TNBS-induced Sprague-Dawley rat colitis model assessed as decrease in TNFalpha expression at 1 mg/kg, po administered once daily via gavage for 5 days starting 1 day post TNBS induction measured on day 7 by Western blot analysis; assay type: functional, organism-based
Rattus norvegicus [19] = test: Antiinflammatory activity in TNBS-induced Sprague-Dawley rat colitis model assessed as decrease in IL-6 expression at 1 mg/kg, po administered once daily via gavage for 5 days starting 1 day post TNBS induction measured on day 7 by Western blot analysis; assay type: functional, organism-based
Rattus norvegicus [20] = test: Antiinflammatory activity in TNBS-induced Sprague-Dawley rat colitis model assessed as recovery in colon weight at 1 mg/kg, po administered once daily via gavage for 5 days starting 1 day post TNBS induction measured on day 7 relative to control; assay type: functional
Rattus norvegicus [21] = test: Antiinflammatory activity in TNBS-induced Sprague-Dawley rat colitis model assessed as reduction in body weight loss at 1 mg/kg, po administered once daily via gavage for 5 days starting 1 day post TNBS induction measured on day 7; assay type: functional, organism-based

Row | SMILES | Ratio (HT-29 [1]) | inhibition at 1 µM (HT-29 [2]) [%] | also measured
1 | Cc1nc(Nc2cnc3ccccc3c2)c(C)c(C)c1O | 3 - 5 | 63.4 | Ratio IC50 (HT-29 [3]): <=7 ×10⁴ No_unit
2 | Cc1nc(Nc2ccc(Cl)cn2)c(C)c(C)c1O | 3 - 5 | 59 | 
3 | Cc1nc(Nc2cccc3[nH]ccc23)c(C)c(C)c1O | 3 - 5 | 31.9 | 
4 | COC(=O)c1sccc1Nc1nc(C)c(O)c(C)c1C | 3 - 5 | 23.7 | 
5 | Cc1ccc(-c2nnc(Nc3nc(C)c(O)c(C)c3C)s2)cc1 | 3 - 5 | 16.6 | 
6 | Cc1nc(Nc2cncc3ccccc23)c(C)c(C)c1O | 3 - 5 | 55.4 | 
7 | CCOC(=O)c1coc(Nc2nc(C)c(O)c(C)c2C)n1 | 3 - 5 | 38.5 | 
8 | Nc1ccc(O)c(C(=O)O)c1 [MESALAMINE] |  | 3.5 | inhibition at 20000 µM (HT-29 [4]): 50.5%
9 | Cc1nnc(Nc2nc(C)c(O)c(C)c2C)o1 | 3 - 5 | 26.2 | 
10 | Cc1nc(Nc2nnc(-c3ccccc3)o2)c(C)c(C)c1O |  | 1.4 | 
11 | Cc1nc(Nc2nc3ccccc3[nH]2)c(C)c(C)c1O | 3 - 5 | 59.9 | 
12 | Cc1nc(Nc2ccccn2)c(C)c(C)c1O | 3 - 5 | 8.5 | 
13 | Cc1nc(Nc2nnc(C(F)(F)F)o2)c(C)c(C)c1O | 3 - 5 | 35.8 | 
14 | O=C(O)c1cc(/N=N/c2ccc(S(=O)(=O)Nc3ccccn3)cc2)ccc1O [SULFASALAZINE] |  |  | Activity (Rattus norvegicus [5]): Active; Activity (Rattus norvegicus [6]): Active; Activity (Rattus norvegicus [7]): Active; Activity (Rattus norvegicus [8]): Active; Activity (Rattus norvegicus [9]): Active; Activity (Rattus norvegicus [10]): Active; Activity (Rattus norvegicus [11]): Active; Activity (Rattus norvegicus [12]): 209.65 ng/mL
15 | Cc1nc(Nc2ccc3ncccc3c2)c(C)c(C)c1O | 3 - 5 | 56.6 | 
16 | Cc1nc(Nc2nnc(-c3ccc(C(F)(F)F)cc3)s2)c(C)c(C)c1O | 3 - 5 | 52.3 | 
17 | Cc1nc(Nc2nccs2)c(C)c(C)c1O | 3 - 5 | 23.7 | 
18 | Cc1nc(Nc2cccc3cnccc23)c(C)c(C)c1O | 3 - 5 | 52.8 | 
19 | Cc1nc(Nc2ccc(C(F)(F)F)cn2)c(C)c(C)c1O | 3 - 5 | 34.8 | 
20 | Cc1nc(Nc2ccc(Cl)nc2)c(C)c(C)c1O | 3 - 5 | 75.4 | Activity (Rattus norvegicus [13]): Active; Activity (Rattus norvegicus [14]): Active; Activity (Rattus norvegicus [15]): Active; Activity (Rattus norvegicus [16]): Active; Ratio IC50 (HT-29 [3]): <=7 ×10⁴ No_unit; Activity (Rattus norvegicus [17]): 127.02 ng/mL; Activity (Rattus norvegicus [18]): Active; Activity (Rattus norvegicus [19]): Active; Activity (Rattus norvegicus [20]): 72%; Activity (Rattus norvegicus [21]): Active
21 | Cc1nc(Nc2nnc(-c3ccc(C(F)(F)F)cc3)o2)c(C)c(C)c1O | 3 - 5 | 55.7 | 
22 | COc1ccc(-c2nnc(Nc3nc(C)c(O)c(C)c3C)s2)cc1 | 3 - 5 | 13.2 | 
23 | Cc1nc(Nc2nnc(-c3ccc(Br)cc3)s2)c(C)c(C)c1O | 3 - 5 | 13.7 | 
24 | Cc1nc(Nc2ccnc3ccccc23)c(C)c(C)c1O | 3 - 5 | 60.2 | 
25 | Cc1nc(Nc2cccc3cccnc23)c(C)c(C)c1O | 3 - 5 | 10.4 | 
26 | Cc1nc(Nc2nnc(-c3ccccc3)s2)c(C)c(C)c1O | 3 - 5 | 78.7 | Activity (Rattus norvegicus [13]): Active; Activity (Rattus norvegicus [14]): Active; Activity (Rattus norvegicus [15]): Active; Activity (Rattus norvegicus [16]): Active; Activity (Rattus norvegicus [17]): 107.37 ng/mL; Activity (Rattus norvegicus [18]): Active; Activity (Rattus norvegicus [19]): Active; Activity (Rattus norvegicus [20]): 79%; Activity (Rattus norvegicus [21]): Active
27 | Cc1nc(Nc2cc(C(F)(F)F)ccn2)c(C)c(C)c1O | 3 - 5 | 22.8 | 
28 | Cc1nc(Nc2ccc(C(F)(F)F)nc2)c(C)c(C)c1O | 3 - 5 | 50.6 | 
